Assay results reported in US4957926A, “Method of treating herpesviruses” (priority 1988, dated 1990).
Read-outs that look alike come from different tables or passages of the source. One block for each molecule: values may come before it.

Columns and labels:
[1] = system: Herpes Simplex Type II (Viral Strain HG52); assay: Herpes Simplex Type II Plaque Reduction Assay; type: cell-based; settings: for EC50: HSV type II; for Plaque Count: replicate counts
Description: (§1) For testing the N-Bu-DNJ against HSV, the HSV Type II strain HG52 described by Timbury, J. Gen. Virol. 13, 373-376 (1971), and Davis et al., Analyst 110, 605-609 (1985), is useful. For testing against CMV, the prototype CMV ADl69 strain described, for example, by Tyms et al., J. Gen. Virol. 68, 1563-1573 (1987), and in U.S. Pat. No. 4,743,560, is useful. Another useful CMV strain is the Towne strain described by Glazer et al., Ann. Inter. Med. 91, 676-683 (1979).
(§2) Human embryo fibroblast cells (HEF) were grown in Eagles minimal essential medium supplemented with 7% fetal calf serum (FCS), 9 mM sodium bicarbonate and 7 mM HEPES buffer. In maintenance medium the supplements were adjusted to 2% FCS, 13 mM sodium bicarbonate and 14 mM HEPES. CMV, strain Towne, and HSV type II, strain […], were used in the following tests. CMV virus stocks were prepared and stored by technique as previously described by Tyms & Williamson, Nature 297, 690-691 […]. Herpes virus stocks were prepared and stored by technique as previously described by Davis et al., Analyst 110, 605-609 (1985). The HEF were human embryonic lung fibroblasts, strain MRC-5, as described by Tyms and Williamson, Nature 297, 690-691 (1982).
(§3) For plaque reduction assays, 24-well culture trays were seeded with HEF cells. Confluent monolayers were infected with virus to give initially about 100 plaque-forming-units (p.f.u.) per well. After a one hour absorption period the inocula were replaced by l.5ml of a maintenance medium incorporating 0.5% low gelling temperature agarose, supplemented with various concentrations of test compound. For tests with CMV, infected monolayers were fixed with 5% formalin in phosphate buffered saline (PBS) at 6-8 days post-infection and stained with 0.3% methylene blue after removal of the overlay; whereas, tests with HSV were conducted in the same manner but with the monolayer fixing at 2 days post infection. The mean plaque number was calculated from a multiple series of counts (e.g., duplicate, triplicate or quadruplicate), converted to a percentage of untreated controls and values plotted against the log10 drug concentration. The 50% effective dose (ED50) was determined from best line fits for the curves.
The mean plaque numbers determined on HEF cells exposed to varying amount of N-Bu-DNJ, N-Me-DNJ, N-He-DNJ, 2-deoxy-D-glucose and castanospermine were converted to percentage values (plaque count in presence of drug divided by mean value of untreated controls×100), and plotted as a function of drug concentration [drug (mM)].
The 50% effective dose (ED50)--that amount of drug needed to reduce plaque count by 50%--was calculated to give the following values: […]

HEF cells (strain MRC-5) [2] = assay: HEF cell growth / monolayer appearance in HSV type II plaque reduction assay; type: cell-based, human
Method: as §3

[3] = system: Cytomegalovirus (Viral Strain Towne); assay: Cytomegalovirus Plaque Reduction Assay; type: cell-based; settings: for Plaque Count: replicate counts
Description: as §1, §2, §3
In a similar manner, the Effective Dosage Values (ED50) were determined from the curves of FIG. 1. A least squares fit of the data of FIG. 1 to an equation of the form: y=mx+b gave the following values: […]
From these values, a 50% effective dose (ED50) was calculated to give the following values: […]

[4] = system: Cytomegalovirus (Viral Strain Towne); assay: Yield Reduction Assay against infections with CMV (Towne strain); type: cell-based; settings: for activity at 500 µM / activity at 2000 µM: read-out: % Virus Control
Method: Antiviral activities of N-Bu-DNJ and comparative test compounds against infections with CMV (Towne strain) were also measured by the yield reduction assay as follows:
HEF cells (MRC-5) were infected at high multiplicity of infection (about one p.f.u. per cell) and incubated with various concentrations of the test compounds for 5 and 6 days post infection. The level of infectious virus shed into the extracellular fluid was determined at 5 and 6 days by plaque assays as described above, using serial dilution of extracellular fluid to bring readings on scale.
In Table VI, to calculate plaque-forming units (PFU) of the maintenance medium overlayering HEF cells, the plaque count at the most sensitive dilution (from Table V) was multiplied by dilution value and then by 5 (0.2 ml sample volumes used in test) to give PFU (per ml maintenance medium). (e.g. calculation of drug control: 31×10^3 ×5=1.6×10^5 PFU).

HIV = settings: Tyms et al., Lancet, 1987; cited from earlier work
HEF cells (strain MRC-5) [5] = type: cell-based, human
Method: Triplicate titer plates were seeded with human embryo fibroblast (HEF) cells (about 7.5×10^3 cells/well), and after 4 days of growth in the absence of presence of 2-deoxy-D-glucose and N-Bu-DNJ were counted and compared to a control without test compound.

[6] = Human betaherpesvirus 5, MRC5, 120 h
[7] = Human betaherpesvirus 5, MRC5, 144 h

SMILES: O[C@H]1[C@H](O)[C@@H](O)CN2CC[C@H](O)[C@H]12 [Castanospermine, castanospermine, reference compound]
activity at 250 µM ([1]; HEF, Table II, 0.25 mM, read-out: % Virus control): 56% | activity at 500 µM ([1]; HEF, Table II, 0.5 mM, read-out: % Virus control): 53% | activity at 1000 µM ([1]; HEF, Table II, 1.0 mM, read-out: % Virus control): 42% | activity at 2000 µM ([1]; HEF, Table II, 2.0 mM, read-out: % Virus control): 50% | activity at 4000 µM ([1]; HEF, Table II, 4.0 mM, read-out: % Virus control): 36% | Plaque Count Avg ([1]; Table II, 0.25 mM): 50 | Plaque Count ([1]; Table II, 0.25 mM): 46,54 | Plaque Count Avg ([1]; Table II, 0.5 mM): 48 | Plaque Count ([1]; Table II, 0.5 mM): 52,44 | Plaque Count Avg ([1]; Table II, 1.0 mM): 38 | Plaque Count ([1]; Table II, 1.0 mM): 21,55 | Plaque Count Avg ([1]; Table II, 2.0 mM): 45 | Plaque Count ([1]; Table II, 2.0 mM): 61,28 | Plaque Count Avg ([1]; Table II, 4.0 mM): 32 | Plaque Count ([1]; Table II, 4.0 mM): 33,32 | EC50 ([3]; Human betaherpesvirus 5, HEF, CMV, calculated from least squares fit of FIG. 1, read-out: 50% effective dose (ED50)): 600 µM | activity at 250 µM ([3]; Human betaherpesvirus 5, HEF, Table IV, 0.25 mM, read-out: % Virus control): 81% | activity at 500 µM ([3]; Human betaherpesvirus 5, HEF, Table IV, 0.50 mM, read-out: % Virus control): 55% | activity at 1000 µM ([3]; Human betaherpesvirus 5, HEF, Table IV, 1.0 mM, read-out: % Virus control): 30% | activity at 2000 µM ([3]; Human betaherpesvirus 5, HEF, Table IV, 2.0 mM, read-out: % Virus control): 12% | Plaque Count Avg ([3]; Table IV, 0.25 mM): 166 | Plaque Count ([3]; Table IV, 0.25 mM): 146,191,184,144 | Plaque Count Avg ([3]; Table IV, 0.50 mM): 113 | Plaque Count ([3]; Table IV, 0.50 mM): 108,112,122,111 | Plaque Count Avg ([3]; Table IV, 1.0 mM): 61 | Plaque Count Avg ([3]; Table IV, 2.0 mM): 25 | PFU ([4]; 0.5 mM, 5 days HEF growth): 2.1 × 10^4 PFU (per ml maintenance medium | PFU ([4]; 0.5 mM, 6 days HEF growth): 2.3 × 10^4 PFU (per ml maintenance medium | PFU ([4]; 2.0 mM, 5 days HEF growth): 2.3 × 10^3 PFU (per ml maintenance medium | PFU ([4]; 2.0 mM, 6 days HEF growth): 1.8 × 10^3 PFU (per ml maintenance medium | activity at 500 µM [4, 6]: 13% | activity at 2000 µM [4, 6]: 1.4% | activity at 500 µM [4, 7]: 6.2% | activity at 2000 µM [4, 7]: 0.48% | block of HIV growth (in words) (HIV): found to block the growth of the AIDS-associated virus HIV

SMILES: OC[C@H]1NC[C@H](O)[C@@H](O)[C@@H]1O [DNJ, 1,5-dideoxy-l,5-imino-Dglucitol]
block of HIV growth (in words) (HIV): found to block the growth of the AIDS-associated virus HIV

SMILES: O=CC[C@@H](O)[C@H](O)[C@H](O)CO [2-Deoxy-D-glucose, 2-deoxy-D-glucose, reference compound]
inhibitory effect on herpesvirus type II (in words) ([1]; 2.5 mM): no inhibitory effect was observed | activity at 2500 µM ([1]; HEF, Table II, 2.5 mM, read-out: % Virus control): ≥ 100% | activity at 5000 µM ([1]; HEF, Table II, 5.0 mM, read-out: % Virus control): 77% | Plaque Count Avg ([1]; Table II, 2.5 mM): 91 | Plaque Count ([1]; Table II, 2.5 mM): 94,88 | Plaque Count Avg ([1]; Table II, 5.0 mM): 69 | Plaque Count ([1]; Table II, 5.0 mM): 61,76 | inhibitory effect on growth of normal cells (in words) (HEF cells (strain MRC-5) [5]): substantially inhibits the growth

More lines, main results first:

EC50 ([1]; HEF, tested up to 1.1 mM, read-out: estimated ED50): ~250 µM
SMILES: CCCCCCN1C[C@H](O)[C@@H](O)[C@H](O)[C@H]1CO [N-He-DNJ, Nhexyl deoxynojirimycin]
activity at 560 µM ([1]; HEF, Table III, 0.56 mM, read-out: % Virus Control): 31.4% | activity at 1120 µM ([1]; HEF, Table III, 1.12 mM, read-out: % Virus Control): 15.7% | Plaque Count Avg ([1]; Table III, 0.56 mM): 16 | Plaque Count Avg ([1]; Table III, 1.12 mM): 8 | Plaque Count ([1]; Table III, 2.25 mM): trace | Plaque Count ([1]; Table III, 4.5 mM): none | size of plaques compared to control test (in words) ([1]; Table III, 2.25 and 4.5 mM): significantly reduced | antiviral activity against HSV type II (in words) ([1]; up to 1.1 mM): substantial antiviral activity | HEF cell growth (in words) (HEF cells (strain MRC-5) [2]; 0.56 and 1.12 mM): grew normally | appearance of HEF cell monolayers (in words) (HEF cells (strain MRC-5) [2]; 2.25 and 4.5 mM): looked thin | cell growth (in words) (HEF cells (strain MRC-5) [2]; higher concentrations (above 1.1 mM)): cell growth also was retarded

EC50 ([1]; HEF, amount of drug needed to reduce plaque count by 50%, read-out: 50% effective dose (ED50)): 2800 µM
SMILES: CN1C[C@H](O)[C@@H](O)[C@H](O)[C@H]1CO [N-Me-DNJ, Nmethyl deoxynojirimycin]
antiviral activity against HSV type II (in words) [1]: substantially reduce herpesvirus type II infection of HEF cells | activity at 280 µM ([1]; HEF, Table I, 0.28 mM, read-out: % Virus Control): ≥ 100% | activity at 560 µM ([1]; HEF, Table I, 0.56 mM, read-out: % Virus Control): 99% | activity at 1120 µM ([1]; HEF, Table I, 1.12 mM, read-out: % Virus Control): 88% | activity at 2240 µM ([1]; HEF, Table I, 2.24 mM, read-out: % Virus Control): 50% | activity at 4480 µM ([1]; HEF, Table I, 4.48 mM, read-out: % Virus Control): 18% | Plaque Count Avg ([1]; Table I, 0.28 mM): 84 | Plaque Count ([1]; Table I, 0.28 mM): 72,95 | Plaque Count Avg ([1]; Table I, 0.56 mM): 77 | Plaque Count ([1]; Table I, 0.56 mM): 79,74 | Plaque Count Avg ([1]; Table I, 1.12 mM): 69 | Plaque Count ([1]; Table I, 1.12 mM): 63,74 | Plaque Count Avg ([1]; Table I, 2.24 mM): 39 | Plaque Count ([1]; Table I, 2.24 mM): 48,29 | Plaque Count Avg ([1]; Table I, 4.48 mM): 14 | Plaque Count ([1]; Table I, 4.48 mM): 9,19
